Test results: PMC3210175, “8-Modified-2′-Deoxyadenosine Analogues Induce Delayed Polymerization Arrest during HIV-1 Reverse Transcription” (PLoS ONE, 2011)
Entries after “also recorded” stand apart in the source; their conditions may differ. Like-named read-outs stand apart in the source and are kept apart here.

Columns and labels:
[1] = test system: HIV-1 LAI in CEM-SS cells; test: HIV-1 inhibition in cell culture (RT activity in cell culture supernatants); type: cell-based; conditions: mean ± SD, four independent experiments
Experimental: (§1) We thus addressed the antiviral activity of our nucleoside analogues in cell culture. All the synthesized nucleoside analogues (2a–g, 3, 7, 8 and 9) were tested for their ability to reduce HIV-1 LAI in CEM-SS cells. Viral replication was monitored by measuring the RT activity in the cell culture supernatants, while compound's cytotoxicity on uninfected cells was assessed using an MTT assay.
(§2) The activity of the nucleoside analogues 2a–g, 3, 7, 8 and 9 on HIV-1 replication was determined by measuring the RT activity associated with virus particles released from CEM-SS cells infected with HIV-1 Lai. The 50% cytotoxic concentration (CC50) was evaluated in parallel to the 50% inhibitory concentration (IC50)[37].

[2] = Cytotoxicity on uninfected cells, MTT assay; type: cell-based; conditions: human, uninfected CEM-SS cells, mean ± SD, four independent experiments
Experimental: as §1, §2

HIV-1 RT [3] = molecular target: T1, HIV-1 RT (Human immunodeficiency virus type 1 group M subtype B, UniProt P04585, E1065Q); test: (−) strand "n+6" DNA synthesis assay (ddATP instead of dATP; DCT-modified 18- or 19-mer primer on 1–311 HIV-1 MAL RNA template); type: biochemical; conditions: for Inhibition of (−) strand DNA synthesis (DCT in the primer), DCT at 3′-end 18 mer: "n+6" DNA synthesis assay, analogue incorporated at 3′ end of 18-mer DNA primer; for Delayed chain termination (accumulation of n+3 products): DCT at penultimate position of 19-mer primer, both 10 and 30 nM RT
T1 construct: helix αH in the thumb domain of the p66 subunit of HIV-1 RT; made in house
From the text: (§3) Viral RNA, comprising the first 311 nucleotides of the HIV-1 genomic RNA (Mal isolate) was in vitro transcribed and purified as previously described. 18-, 19 and 31-mer DNA oligodeoxynucleotides containing the modified 2′-dA analogues respectively at 3′ end, at the penultimate position of 3′ end and at a distance of 12 nucleotides from their 5′ end were chemically synthesized and purified as described above (Figure 5). Unmodified and modified 18- and 19-mer primers were labelled at their 5′ end with [γ-^32]ATP using phage T4 polynucleotide kinase and purified on 8% denaturing polyacrylamide gels. RNase H (−) reverse transcriptase bearing the E478Q mutation that abolishes RNase H activity (RT^EQ) was expressed and purified according to a method adapted from.
(§4) Primer/template (P/T) complexes, at a final concentration of 300 nM, were formed by incubating the primer with a 3 fold excess of either 1–311 viral RNA or modified 31-mer DNA oligonucleotide in water for 2 min at 90°C, cooling on ice for 2 min and incubating for 20 min at 50°C in 100 mM NaCl.
Ten nM P/T (with the 311 vRNA as template) were pre-incubated with 10 or 30 nM of RT at 37°C for 4 min. Reactions were initiated by the addition of 50 µM of each of the four dNTPs and stopped at various times with equal amounts of buffer containing formamide. The same procedure was used for synthesis of “+6” DNA except that ddATP was substituted for dATP. Reaction products were denatured for 2 min at 90°C prior to separation on an 8% polyacrylamide denaturing gel and quantified using a Fuji FLA-5100 analyser and the Image Gauge program.

HIV-1 RT [4] = molecular target: T1, HIV-1 RT; test: (+) strand DNA synthesis assay (DCT in 31-mer DNA template, 18-mer DNA primer); type: biochemical; conditions: analogue in 31-mer DNA template; RT 10 or 30 nM
From the text: as §3, §4
Thirty one-mer DNA templates, containing or not a modified 2′-deoxyadenosine were hybridized to an 18-mer DNA primer (Figure 5) and subsequent DNA synthesis and analysis of the reaction products were performed as described above.

CEM-SS cells = test: Cytotoxicity on uninfected cells, MTT assay; type: cell-based; conditions: mean ± SD, four independent experiments
Experimental: as §1, §2

HIV-1 RT [5] = molecular target: T1, HIV-1 RT; test: (−) strand strong-stop DNA synthesis assay (DCT-modified 19-mer DNA primer on 1–311 HIV-1 MAL RNA template); type: biochemical; conditions: 10 nM RT, full-length product
From the text: as §3, §4
Ten nM P/T (with the 311 vRNA as template) were pre-incubated with 10 or 30 nM of RT at 37°C for 4 min. […] Reaction products were denatured for 2 min at 90°C prior to separation on an 8% polyacrylamide denaturing gel and quantified using a Fuji FLA-5100 analyser and the Image Gauge program.

HIV-1 RT [6] = molecular target: T1, HIV-1 RT; test: DNA-directed DNA synthesis with modified 19-mer primer on 41-mer DNA template (Figure S2); type: biochemical; conditions: 8-MeS-dAMP at penultimate position of 19-mer primer, 10 or 90 nM RT
From the text: Supplementary file pone.0027456.s002.docx: Figure S2 Comparative effect of 8-MeS-dA on (−) and (+) strand DNA synthesis. A. Templates and primers used for the study. The template is either 1–311 HIV-1 MAL RNA, for which part of the sequence is shown, or a 41-mer DNA oligonucleotide. The primer is a 19- mer DNA strictly complementary to the central part of the template. X corresponds to either dAMP or 8-MeS-dAMP inserted at the penultimate position of the primer. “n” corresponds to the position of the modified nucleotide. B. Time course of in vitro DNA synthesis using 10 nM of primer/template complexes preincubated with either 10 or 90 nM of HIV-1 RT. Polymerization was initiated by the addition of 20 µM of dTTP, dGTP and dCTP as well as 50 µM of ddATP for the RNA-directed synthesis or 20 µM of dATP, dTTP, dCTP and 50 µM of ddGTP for the DNA directed synthesis. Reactions were stopped after 15, 60 and 120 min. (+6) and (+7) refer to the 6th and 7th nucleotides to be added with respect to the position of the modified nucleotide analogue. (DOCX) Click here for additional data file.

[7] = Human immunodeficiency virus 1, CEM-SS, read-out: EC50

Compound | EC50 [1, 7] [µM] | CC50 [2] [µM] | Delayed chain termination (accumulation of n+3 products) (HIV-1 RT [3]) | Effect on primer extension pattern / enzyme pausing in (+) strand DNA synthesis (HIV-1 RT [4]) | also measured
CN(C)c1nc2c(N)ncnc2n1[C@H]1C[C@H](O)[C@@H](CO)O1 [2a, 8-Dimethylamino-2'-deoxyadenosine] | > 100 | > 100 | – | – | –
CCN(C)c1nc2c(N)ncnc2n1[C@H]1C[C@H](O)[C@@H](CO)O1 [2b, 8-Ethylmethylamino-2'-deoxyadenosine] | > 100 | > 100 | clearly induced a delayed chain termination | enzyme pausing is obvious at positions n+1 and mainly n+2 | Inhibition of (−) strand DNA synthesis (DCT in the primer), DCT at 3′-end 18 mer (HIV-1 RT [3]; 10 nM RT): immediate chain terminator; also recorded: termination; Inhibition of (−) strand DNA synthesis (DCT in the primer), DCT at 3′-end 18 mer (HIV-1 RT [3]; 30 nM RT): immediate chain terminator; also recorded: termination
CCN(CC)c1nc2c(N)ncnc2n1[C@H]1C[C@H](O)[C@@H](CO)O1 [2c, 8-Diethylamino-2'-deoxyadenosine] | > 100 | > 100 | – | – | –
Nc1ncnc2c1nc(N1CCCC1)n2[C@H]1C[C@H](O)[C@@H](CO)O1 [2d, 8-Pyrrolidin-2'-deoxyadenosine] | > 100 | > 100 | – | – | –
Nc1ncnc2c1nc(N1CCCCC1)n2[C@H]1C[C@H](O)[C@@H](CO)O1 [2e, 8-Piperidin-2'-deoxyadenosine] | > 100 | > 100 | – | – | –
CC(C)Nc1nc2c(N)ncnc2n1[C@H]1C[C@H](O)[C@@H](CO)O1 [2f, 8-iPropyl-amino-2'-deoxyadenosine] | 14 | 81 | clearly induced a delayed chain termination | enzyme pausing is obvious at positions n+1 and mainly n+2 | EC50 ([1]; listed as 8-iPr-N-dA): moderate anti-HIV-1 activity; EC50 ([1]; read-out: EC50): 14.2 ± 1.9 µM; CC50 (CEM-SS cells): 81.3 ± 6.1 µM
CC(C)CNc1nc2c(N)ncnc2n1[C@H]1C[C@H](O)[C@@H](CO)O1 [2g, 8-iButyl-amino-2'-deoxyadenosine] | > 100 | > 100 | did not impact | does not affect this pattern | Inhibition of (−) strand DNA synthesis (DCT in the primer), DCT at penultimate position 19 mer (HIV-1 RT [5]): same pattern as the unmodified primer
CSc1nc2c(N)ncnc2n1[C@H]1C[C@H](O)[C@@H](CO)O1 [compound 3, 8-Methylthio-2′-deoxyadenosine] | > 100 | > 100 | clearly induced a delayed chain termination | enzyme pausing is obvious at positions n+1 and mainly n+2 | Delayed chain termination with DNA rather than RNA as template (HIV-1 RT [6]): did not act as a delayed chain terminator
NC(=O)c1nc2c(N)ncnc2n1[C@H]1C[C@H](O)[C@@H](CO)O1 [compound 7, 8-Carbamoyl-2′-deoxyadenosine] | > 100 | > 100 | – | – | –
C=Cc1nc2c(N)ncnc2n1[C@H]1C[C@H](O)[C@@H](CO)O1 [compound 8, 8-Vinyl-2′-deoxyadenosine] | > 100 | > 100 | – | enzyme pausing is obvious at positions n+1 and mainly n+2 | –
CCc1nc2c(N)ncnc2n1[C@H]1C[C@H](O)[C@@H](CO)O1 [compound 9, 8-Ethyl-2′-deoxyadenosine] | > 100 | > 100 | – | enzyme pausing is obvious at positions n+1 and mainly n+2 | –
